Source: patent US20090041751A1, “Sepsis Prevention Through Adenosine Receptor Modulation” (priority 2005, published 2009)
Entries after “also recorded” stand apart in the source; their conditions may differ.

What was measured:
[1] = system: mice subjected to CLP; test: Survival after cecal ligation and puncture (CLP)-induced sepsis; format: in vivo, mouse; conditions: CD-1 mice
From the text: For pharmacological studies with the selective A2A receptor antagonist 4-(2-[7-amino-2-(2-furyl)[1,2,4]triazolo[2,3-a][1,3,5]triazin-5-ylamino]ethyl)phenol(4-(2-[7-amino-2-(2-furyl[1,2,4]-triazolo[2,3-a[1,3,5]triazin-5-yl-aminoethyl)phenol (“ZM241385”); Tocris Cookson Inc.), male CD-1 mice were used that were purchased from Charles River Laboratories.
Polymicrobial sepsis was induced by subjecting mice to CLP, as we have described previously, with some modifications. Six-to-eight-week-old male A2a receptor KO or WT mice were anesthetized with Nembutal (80 mg/kg), given i.p. Under aseptic conditions, a 2-cm midline laparotomy was performed to allow exposure of the cecum with adjoining intestine. Approximately two-thirds of the cecum was tightly ligated with a 3.0 silk suture, and the ligated part of the cecum perforated twice (through and through) with a 20-gauge needle (Beckton Dickinson). The cecum was then gently squeezed to extrude a small amount of feces from the perforation sites. The cecum was then returned to the peritoneal cavity and the laparotomy closed in two layers with 4.0 silk sutures. Sham-operated animals underwent the same procedure without ligation or puncture of the cecum. The mice were resuscitated with 1 ml of physiological saline injected s.c., and returned to their cages with free access to food and water. One group of mice was monitored daily and survival recorded for 10 days. Another group of mice was re-anesthetized with Nembutal (80 mg/kg; i.p.) 16 or 48 hours after the operation, and blood, peritoneal lavage fluid, and various organs were harvested as described below.
The effect of pharmacological inactivation of A2A receptors in mice subjected to CLP was evaluated using CD-1 mice in a similar fashion to that described for the A2A receptor KO or WT mice. […]
Survival curves were analyzed using the two-tailed Fisher's exact test. […]

[2] = system: IL-10, IL-6, MIP-2, IL-12; test: Cytokine levels (ELISA) in plasma and peritoneal lavage fluid after CLP; format: in vivo, mouse
Experimental: The effect of pharmacological inactivation of A2A receptors in mice subjected to CLP was evaluated using CD-1 mice in a similar fashion to that described for the A2A receptor KO or WT mice. In this set of experiments, the mice were injected immediately before or 2 hours after the operation and every 12 hours thereafter with 4-(2-[7-amino-2-(2-furyl[1,2,4]-triazolo[2,3-a[1,3,5]triazin-5-yl-aminoethyl)phenol (“ZM241385”) (15 mg/kg, s.c.) or its vehicle (DMSO). Blood samples were obtained aseptically by cardiac puncture using heparinized syringes after opening the chest and placed on ice into heparinized Eppendorf tubes until further processing for hematological and bacteriological analysis. Aliquots of whole blood were analyzed for hematology by flow cytometry (CELL-DYN 3200 System, Abbott Laboratories) in a centralized facility. After serial dilutions for bacteriological analysis were made (see below), the blood was centrifuged at 2000×g for ten minutes and the recovered plasma stored at −70° C. until further use. For peritoneal lavage, the abdominal skin was cleansed with 70% ethanol and the abdominal wall exposed by opening the skin. Four milliliters of sterile physiological saline was then installed into the peritoneal cavity via an 18-gauge needle. The abdomen was massaged gently for 1 minute while keeping the tip of the needle in the peritoneum, after which procedure peritoneal fluid was recovered through the needle. Recovered peritoneal lavage fluid was placed on ice until processed for bacteriological examination. After serially diluting the peritoneal lavage fluid to determine CFU numbers (see below), the peritoneal lavage fluid was centrifuged at 5000×g for ten minutes and the supernatant stored at −70° C. until further analysis. Samples from spleen, thymus, lung, kidneys, and liver were excised and either immediately frozen in liquid nitrogen or placed in 10% paraformaldehyde for subsequent histological analysis. Snap-frozen tissue samples were transferred to a −70° C. refrigerator until analyzed for gene expression and apoptotic markers. Concentrations of IL-10, IL-6, IL-12 p70, TNF-α and MIP-2, in plasma or peritoneal lavage fluid were determined using commercially available ELISA kits (R&D Systems) and according to the manufacturer's instructions. The lower detection limit for all these cytokines was 10 pg/ml. Plasma concentrations of AST, ALT, and BUN were analyzed using standard laboratory procedures. Survival curves were analyzed using the two-tailed Fisher's exact test. Two-tailed t testing was used to compare cytokine concentrations, CFUs, and other laboratory parameters. Statistical significance was assigned to p values smaller than 0.05.

[3] = 15 mg/kg s.c. twice daily, 16 hours after CLP, FIG. 6C
[4] = 15 mg/kg s.c. twice daily, 16 hours after CLP, FIG. 6D
[5] = 15 mg/kg s.c. twice daily, 16 hours after CLP, FIG. 6E
[6] = mouse CLP sepsis model, FIG. 10, matrix not stated

## Nc1nc(NCCc2ccc(O)cc2)nc2nc(-c3ccco3)nn12 [ZM241385]
[1]; 15 mg/kg s.c. twice daily starting 2 hours after resuscitation, survival monitored 5 days, FIG. 6B, 15 mg/kg
  survival after CLP vs vehicle-treated mice, delayed administration: still protective; also recorded: protects mice from death
[1]; 15 mg/kg s.c. twice daily starting at time of resuscitation (time 0), survival monitored 5 days, FIG. 6A, 15 mg/kg
  survival after CLP vs vehicle-treated mice: significantly improved survival; also recorded: protects mice from death
[1]; survival recorded for 2 days, FIG. 9
  survival after CLP: improved survival
[2]; [3]
  IL-10 level in peritoneal lavage fluid vs vehicle-treated mice: decreased
  IL-10 level in plasma vs vehicle-treated mice: decreased
[2]; [4]
  IL-6 concentration in plasma vs vehicle-treated mice: comparable
  IL-6 level in peritoneal fluid vs vehicle-treated mice: lower; also recorded: attenuated
[2]; [5]
  MIP-2 level in peritoneal lavage fluid vs vehicle-treated mice: decreased
  MIP-2 level in plasma vs vehicle-treated mice: decreased
[2]; [6]
  IL-10 levels vs vehicle treated mice: Decreased levels
  IL-12 concentrations vs vehicle treated mice: comparable
  MIP-2 levels vs vehicle treated mice: Decreased levels
